The results in this text go back to article PMC9732821, “Neurotrophic Activity and Its Modulation by Zinc Ion of a Dimeric Peptide Mimicking the Brain-Derived Neurotrophic Factor N-Terminal Region” (ACS Chemical Neuroscience, 2022).

The test system of one test is ERK. As to the kind of experiment: competition experiments, ERK phosphorylation with BDNF plus d-bdnf in differentiated SH-SY5Y cells. Type of test: cell-based, human. The conditions noted are these: BDNF 1 nM + d-bdnf 10 nM-100 µM, or d-bdnf 10 µM + BDNF 0.074 nM–10 nM; 10 min; 2 independent replicas. The source says: The possibility of mimicking the function of the full-length BDNF protein by using a linear peptide fragment encompassing the first 12 amino acids of the mature NT N-terminal was already postulated.[31] Here, we named this sequence as m-bdnf (Figure 1A) and performed a systematic comparison between the performance of the full-length human BDNF produced recombinantly in Escherichia coli([32]) and (i) m-bdnf, (ii) a dimeric peptide displaying two copies of the m-bdnf sequence covalently bound by a disulfide bridge (d-bdnf), and (iii) a monomeric peptide displaying the scrambled sequence of m-bdnf (s-bdnf). We first investigated the ability of these peptides to activate the TrkB receptor. […] Specifically, an EC50 concentration of BDNF (1 nM) or of d-bdnf (10 μM) was used in combination with the increasing concentration of d-bdnf and BDNF, respectively, and the increase of ERK phosphorylation was assessed. […] Of note, we also performed a non-permeabilizing immunofluorescence analysis to quantify the membrane-bound BDNF in differentiated SH-SY5Y cells in the absence or presence of BDNF and d-bdnf (Figure S1C,D). […] The same increment was not observed upon treatment with the d-bdnf peptide, while instead we measured a slight (∼18%) decrease of the signal possibly due to the ability of the peptide to displace endogenous BDNF at the tested dose (10 μM). […]

The next test has as its system SH-SY5Y cells. As to the kind of experiment: RT-PCR gene expression analysis of differentiated SH-SY5Y cells. The conditions noted are these: RT-PCR mRNA, four replicas, two independent experiments. The class given is cell-based, human. The source says: Figure 4 Neuronal differentiation and polarization genes stimulated by BDNF and d-bdnf mimetic peptide. (A) Schematic timeline of the experiment. As non-differentiated control, we used untreated cells seeded at the same density (non-diff ctrl, white bars). As a control for the expression of neuronal polarization genes, we used cells stopped at d5 (non-pol ctrl). (B) RT-PCR analysis of the mRNA expression levels of neuronal differentiation markers (NTRK2, LAMC1, and NEFM) and polarization markers (GAP43, MAP2, and MAPT) induced by BDNF and d-bdnf with respect to non-diff and non-pol ctrl samples, respectively. Data are expressed as fold changes with respect to the average ctrl value set to 1, and the mean ± SEM of four replicas from two independent experiments are reported (****p < 0.0001, ***p < 0.001, **p < 0.01, and *p < 0.05 according to the one-way ANOVA with Bonferroni’s multiple comparison test).
Figure 6 Modulation of d-bdnf neurotrophic activity by Zn^2+ ion. (A) Neurite outgrowth assay for d-bdnf-Zn^2+ conjugate. The ctrl and d-bdnf samples are the same as in Figure 2C, here reported as a reference. Data represent the mean ± SD of fields pooled from two independent replicas. (****p < 0.0001, according to the one-way ANOVA with Dunnett’s multiple comparison test). (B) RT-PCR analysis of the mRNA expression levels of the marker genes (as described in Figure 3B). Data are expressed as fold changes with respect to the average ctrl value set to 1, and the mean ± SEM of four replicas from two independent experiments are reported (**p < 0.01, *p < 0.05, vs ctrl; #p < 0.05 vs d-bdnf, according to one-way ANOVA with Bonferroni’s multiple comparison test). […]
RT-PCR analysis of SH-SY5Y differentiation
At the end of each differentiation treatment and relative controls, cells were col lected, and total RNA was extracted using the Rneasy Mini Kit (Qiagen). The RNA concentration and purity were checked at the Nanodrop instrument (Thermofisher). cDNA synthesis was performed with 1 µg of RNA using i-Script cDNA synthesis kit (BioRad). Real-time PCR reactions consisted of 10 µL of SsoAdvanced™ Universal SYBR® Green Supermix - Bio-Rad, 0.5 µL of both 10 µM forward and reverse primers, 5 µL of cDNA (50 ng), and 4 µL of H2O. The primer sequences and the product size […]
HPRT1 and NEFM primers were purchased by Biorad (qHsaCID0016375 and qHsaCED0043021, Bio-Rad). The mRNA levels for each sample were normalized against GAPDH and HPRT1 mRNA levels, and the relative expression was calculated by using the methods of the […]

Turning to “HSDPARRGELSVC-C-VSLEGRRAPDSH (disulfide) [d-bdnf]”, the “competition / additivity on ERK phosphorylation” value in the test on ERK is given as “neither antagonist nor additive effects”. The MAPT expression result in the test on SH-SY5Y cells (axon marker, d-bdnf vs BDNF) is “to a similar extent to BDNF”. Moreover, the MAP2 expression result in the test with SH-SY5Y cells (dendrite marker, d-bdnf vs BDNF) is listed as “to a similar extent to BDNF”. Moreover, in the test with SH-SY5Y cells (d-bdnf vs BDNF), the LAMC1 expression entry was “to promote, to a similar extent of BDNF, the expression of NTRK2 and LAMC1 genes”; the NTRK2 expression result was “to promote, to a similar extent of BDNF, the expression of NTRK2 and LAMC1 genes”. Besides, in the test with SH-SY5Y cells, the GAP43 gene expression entry was “not significantly increased by either the d-bdnf doses tested” and the NEFM gene expression entry is “significantly increased only at the highest d-bdnf dose (10 μM)”.
